Test results reported in PubChem BioAssay AID1963438 (Molecular Pharmacology Branch, DTP, NCI, 2024).

Tested on: NCI-H510 multicellular tumor spheroid growth, % test/control
Experiment: Anticancer human tumor NCI-H510 cell line growth inhibition [Asc];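 note: spheroids exposed to agents for 7 days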;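 for viability, T/C: 100% = DMSO vehicle control wells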
Settings: for IC50: curve of first compound; for viability, T/C: stronger effect = lower value
Method: Multicellular complex tumor spheroid response to apoptosis pathway targeting inhibitors Alrizomadlin, Pelcitoclax, and Dasminapant in combination with a variety of drugs and investigational agents in selected tumor cell lines
The MDM2 inhibitor alrizomadlin, the Bcl-2/Bcl-xL inhibitor pelcitoclax, and the IAPs inhibitor dasminapant were evaluated both individually and in combination with standard of care and investigational anticancer small molecules within a complex spheroid model of solid tumors. . Complex spheroids include a stromal component modeled by human endothelial cells (HUVEC) and fibroblasts modeled by human mesenchymal stem cells (MSCs). The concentration ranges selected for each drug and investigational agent were based upon clinically achievable concentrations if the clinical Cmax of the agent was known.
Compounds. The drugs and investigational agents: alrizomadlin (APG-115; NSC831270), pelcitoclax (APG-1252; NSC835773), dasminapant (APG-1387;NSC834197), TAK-243 (NSC785004), copanlisib (NSC809693), olaparib (NSC753686), talazoparib (NSC767125), cobimetinib (NSC 768068), eltanexor (KPT-8602, NSC 794443), abemaciclib (NSC 768073), sotorasib (NSC818433), adagrasib (NSC 831453), MRTX-1133 (NSC 836407), Iadademestat (ORY1001, NSC 806812), and RMC-4630 (NSC839698), were obtained from the NCI Developmental Therapeutics Program Chemical Repository. The FDA-approved anticancer drug set is available from the Developmental Therapeutics Program at https://dtp.cancer.gov/organization/dscb/obtaining/available plates.htm. […] The stock solutions were prepared in dimethyl sulfoxide (DMSO, Sigma-Aldrich, St. Louis, MO, cat. D2650) at 800-fold the tested concentration and stored at -70 degrees C prior to their use. All drugs and investigational agents were tested over a range starting from a high concentration at or near the clinical Cmax and decreasing in half-log increments. If the clinical Cmax for an agent had not been determined, the highest concentration tested was 10 microM.
The patient-derived cancer (PDC) cell lines include five colon adenocarcinomas: 186277-243-T-J2-PDC, 616215-338-R-J1-PDC, 439559-082-T-J2-PDC, 463943-066-T-J2-PDC, and 519858-162-T-J1-PDC; three pancreatic carcinomas: 323965-272-R-J2-PDC, 521955-158-R6-J3-PDC, and 521955-158-R2-J5-PDC; two uterine sarcomas: 327498-152-R-J2-PDC and 993429-296-R-J1-PDC; two rhabdomyosarcomas: 755483-174-R-J1-PDC and 772245-204-R-J1-PDC; two soft tissue sarcomas: 126254-015-R-J1-PDC and 494315-158-R-J1-PDC; two malignant fibrous histiocytomas: 317291-083-R-J1-PDC and 596521-263-R-J1-PDC; two breast carcinomas: 171881-019-R-J1-PDC and 885512-296-R-J2-PDC; and one ovarian carcinoma: 6556581-035-R-J-PDC were obtained from the NCI PDMR, (https://pdmr.cancer.gov). The established cell lines HSSY-2 synovial sarcoma (RRID:CVCL 8719), SYO-1 synovial sarcoma (RRID:CVCL_7146), MPNST malignant peripheral neural sheath tumor were obtained from the Sloan Kettering Institute. The following established cell lines were purchased from the American Type Culture Collection (ATCC, Manassas, VA), Sor the received from the NCI repository:, PANC-1 pancreatic carcinoma (CRL-1469, RRID:CVCL_0480), OVCAR-5 ovarian carcinoma (RRID:CVCL_1628), OVCAR-8 ovarian carcinoma (RRID:CVCL_1629), , MCF-7 breast carcinoma (CRL-12584, RRID:CVCL_0031), MDA-MB-231 breast carcinoma (CRL-12532, RRID:CVCL_0062), NCI-H1876 small cell lung carcinoma (CRL-5902, RRID:CVCL_1503), NCI-H510A small cell lung carcinoma (HTB-184, RRID:CVCL_1565), NCI-H1417 (CRL-5869, RRID:CVCL_1469), and NCI-H196 small cell lung carcinoma (CRL-5823, RRID:CVCL_1509). Dr. Peter Houghton (Greehey Children's Cancer Research Institute, University of Texas Health Science Center, San Antonio, TX) provided Rh-18 rhabdomyosarcoma (RRID:CVCL_1659). Pooled donor human umbilical vein endothelial cells (HUVEC, Lonza, cat. CC-2519) and human mesenchymal stem cells (hMSC, Lonza, cat. PT-2501) were purchased from Lonza (Walkersville, MD).
Cell Culture. […]

`C#Cc1c(F)ccc2cc(O)cc(-c3ncc4c(N5CC6CCC(C5)N6)nc(OCC56CCCN5CC(F)C6)nc4c3F)c12` (stereo not given) + CCN1C(C(=O)NC23CCC(C(=O)O)(CC2)CC3)C(c2cccc(Cl)c2F)C2(C(=O)Nc3cc(Cl)ccc32)C12CCCCC2 showed an IC50 (second compound 0.03 µM) of over 10 µM, an IC50 (second compound 0.0949 µM) of over 10 µM and an IC50 (second compound 0.3 µM) of over 10 µM. It also gave an IC50 (second compound 0.949 µM) of over 10 µM, an IC50 (second compound 3 µM) of over 10 µM and a viability, T/C (second compound 0.03 µM, first compound 0.0316 µM) of 118%. For the same molecule, the viability, T/C (second compound 0.03 µM, first compound 0.1 µM) was 98.2%, the viability, T/C (second compound 0.03 µM, first compound 0.316 µM) was 92.6% and the viability, T/C (second compound 0.03 µM, first compound 1 µM) was 92.1%. It also gave a viability, T/C (second compound 0.03 µM, first compound 3.16 µM) of 105%, a viability, T/C (second compound 0.03 µM, first compound 10 µM) of 110% and a viability, T/C (second compound 0.0949 µM, first compound 0.0316 µM) of 93.8%. The viability, T/C (second compound 0.0949 µM, first compound 0.1 µM) was 100%, the viability, T/C (second compound 0.0949 µM, first compound 0.316 µM) was 103% and the viability, T/C (second compound 0.0949 µM, first compound 1 µM) was 100%. The viability, T/C (second compound 0.0949 µM, first compound 3.16 µM) was 103%, the viability, T/C (second compound 0.0949 µM, first compound 10 µM) was 95.4% and the viability, T/C (second compound 0.3 µM, first compound 0.0316 µM) was 109%. It also gave a viability, T/C (second compound 0.3 µM, first compound 0.1 µM) of 113%, a viability, T/C (second compound 0.3 µM, first compound 0.316 µM) of 92.5% and a viability, T/C (second compound 0.3 µM, first compound 1 µM) of 107%. The viability, T/C (second compound 0.3 µM, first compound 3.16 µM) was 91.4%, the viability, T/C (second compound 0.3 µM, first compound 10 µM) was 87.6% and the viability, T/C (second compound 0.949 µM, first compound 0.0316 µM) was 93%. It also gave a viability, T/C (second compound 0.949 µM, first compound 0.1 µM) of 108%, a viability, T/C (second compound 0.949 µM, first compound 0.316 µM) of 98% and a viability, T/C (second compound 0.949 µM, first compound 1 µM) of 109%. For the same molecule, the viability, T/C (second compound 0.949 µM, first compound 3.16 µM) was 106%, the viability, T/C (second compound 0.949 µM, first compound 10 µM) was 95.1% and the viability, T/C (second compound 3 µM, first compound 0.0316 µM) was 110%. For the same molecule, the viability, T/C (second compound 3 µM, first compound 0.1 µM) was 107%, the viability, T/C (second compound 3 µM, first compound 0.316 µM) was 114% and the viability, T/C (second compound 3 µM, first compound 1 µM) was 99.9%. For the same molecule, the viability, T/C (second compound 3 µM, first compound 3.16 µM) was 101% and the viability, T/C (second compound 3 µM, first compound 10 µM) was 102%.
With `O=C(c1ccc(F)c(F)c1Nc1ccc(I)cc1F)N1CC(O)([C@@H]2CCCCN2)C1` + CNC(C)C(=O)NC1CN(S(=O)(=O)c2cccc(S(=O)(=O)N3CCC4CCC(C(=O)NC(c5ccccc5)c5ccccc5)N4C(=O)C(NC(=O)C(C)NC)C3)c2)CCC2CCC(C(=O)NC(c3ccccc3)c3ccccc3)N2C1=O the IC50 (second compound 0.01 µM) was over 1 µM, the IC50 (second compound 0.0316 µM) was over 1 µM and the IC50 (second compound 0.1 µM) was over 1 µM. For the same molecule, the IC50 (second compound 0.316 µM) was over 1 µM, the IC50 (second compound 1 µM) was over 1 µM and the viability, T/C (second compound 0.01 µM, first compound 0.00316 µM) was 98.5%. The viability, T/C (second compound 0.01 µM, first compound 0.01 µM) was 113%, the viability, T/C (second compound 0.01 µM, first compound 0.0316 µM) was 102% and the viability, T/C (second compound 0.01 µM, first compound 0.1 µM) was 101%. It also gave a viability, T/C (second compound 0.01 µM, first compound 0.316 µM) of 102%, a viability, T/C (second compound 0.01 µM, first compound 1 µM) of 79.6% and a viability, T/C (second compound 0.0316 µM, first compound 0.00316 µM) of 94.7%. It also gave a viability, T/C (second compound 0.0316 µM, first compound 0.01 µM) of 103%, a viability, T/C (second compound 0.0316 µM, first compound 0.0316 µM) of 88% and a viability, T/C (second compound 0.0316 µM, first compound 0.1 µM) of 102%. The viability, T/C (second compound 0.0316 µM, first compound 0.316 µM) was 100%, the viability, T/C (second compound 0.0316 µM, first compound 1 µM) was 90.3% and the viability, T/C (second compound 0.1 µM, first compound 0.00316 µM) was 112%. It also gave a viability, T/C (second compound 0.1 µM, first compound 0.01 µM) of 95.2%, a viability, T/C (second compound 0.1 µM, first compound 0.0316 µM) of 104% and a viability, T/C (second compound 0.1 µM, first compound 0.1 µM) of 97.2%. For the same molecule, the viability, T/C (second compound 0.1 µM, first compound 0.316 µM) was 92.1%, the viability, T/C (second compound 0.1 µM, first compound 1 µM) was 101% and the viability, T/C (second compound 0.316 µM, first compound 0.00316 µM) was 102%. The viability, T/C (second compound 0.316 µM, first compound 0.01 µM) was 101%, the viability, T/C (second compound 0.316 µM, first compound 0.0316 µM) was 104% and the viability, T/C (second compound 0.316 µM, first compound 0.1 µM) was 105%. It also gave a viability, T/C (second compound 0.316 µM, first compound 0.316 µM) of 100%, a viability, T/C (second compound 0.316 µM, first compound 1 µM) of 108% and a viability, T/C (second compound 1 µM, first compound 0.00316 µM) of 109%. It also gave a viability, T/C (second compound 1 µM, first compound 0.01 µM) of 111%, a viability, T/C (second compound 1 µM, first compound 0.0316 µM) of 101% and a viability, T/C (second compound 1 µM, first compound 0.1 µM) of 90.2%. For the same molecule, the viability, T/C (second compound 1 µM, first compound 0.316 µM) was 99.7% and the viability, T/C (second compound 1 µM, first compound 1 µM) was 84.7%.
